# Data from patent US20070026465A1, “Method for detecting GAD65 autoreactive T cells newly diagnosed type1 diabetic patients and in the prediabetic period” (priority 2005, published 2007).
# Several values for one entry are separate records, joined by “and”; a condition that tells them apart may be missing. Equal entries are not always repeated.
# Assays:
# Format in all cases: cell-based, human
# [1] = test system: PBMC of newly diagnosed T1D patients; test: GAD65 HLA class I tetramer staining and flow cytometry of stimulated PBMC, T1D patients; design: % CD3+/CD8+/GAD65 reactive T cells, average / % CD3+/CD8+/GAD65 reactive T cells: concentration or dose not given beside the values
# [2] = test system: PBMC of healthy control individuals; test: GAD65 HLA class I tetramer staining and flow cytometry of stimulated PBMC, healthy controls; design: % CD3+/CD8+/GAD65 reactive T cells, average / % CD3+/CD8+/GAD65 reactive T cells: concentration or dose not given beside the values
# [3] = test system: PBMC of healthy normal controls; test: T cell activation (CD69 staining) in stimulated PBMC, healthy controls; details: GAD65 peptide treated PBMC, day 6;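 note: GAD65 peptide 10 to 30 µg/ml in culture medium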
# Experimental: (§1) PBMC were separated from 5-10 ml heparinized peripheral blood by Ficoll gradient centrifugation (Histopaque, Sigma-Aldrich, St. Luis, Mo., USA). […] This washing step was introduced in the method to remove the GAD65 peptide and therefore reduce the risk of aspecificities in the subsequent procedure of tetramer binding. […] Cells were then harvested and processed for tetramer staining and flow cytometric analysis.
# (§2) On day 4 or day 6 from the beginning of culture, 1×10^6 cells were allocated for staining. They were washed by centrifugation at 1500 rpm for 5 min at room temperature in wash buffer [0.1% sodium azide, 2% FBS in PBS] then resuspended in the residual volume (approximately 50 μl). 1 μl of phycoerythrin (PE) labelled GAD65 tetramer was added and incubated in ice for 30^+ min in the dark. […] Cells were then washed twice in phosphate buffer and their staining achieved using a Beckton Dickinson FACSCalibur flow cytometer and analysed with the CellQuest software program. T cell activation was evaluated by staining cells with […] in different multiple staining experiments. […]
# [4] = test system: CD8+/GAD65 reactive lymphocytes of a T1D patient; test: Early-late apoptosis (Annexin V / propidium iodide) in peptide stimulated PBMC
# Experimental: At day 4 and day 6 from the beginning of the culture, 1×10^6 cells stimulated with the GAD65 peptide according to the above mentioned protocols were washed in the same washing phosphate buffer as described above and resuspended in the residual volume of approximately 50 μl. 1 μl PE-labelled GAD65 tetramer was used per staining procedure. Cells were then incubated with biotinylated anti-human CD8 MoAb (1:10 dilution, Becton Dickinson) in ice, for at least 30 min, in the dark. They were then washed with washing buffer by centrifugation at 1500 rpm for 5 min at room temperature. 5 μl of streptavidin-(Cy5) conjugate was then added for 30 min at room temperature, in the dark. Cells were then washed in ice cold PBS (2% FBS) by centrifugation at 1500 rpm for 5 min at room temperature. Cell pellet was then suspended in 500 μl of phosphate buffer. 10 μl of cold media binding reagent (Calbiochem, San Diego, Calif., USA) and 1.25 μl of Annexin V-FITC conjugate (Calbiochem) were added according to manufacturer's instructions. […] Staining was then immediately achieved and analysed by flow cytometry. […] Cells were evaluated as necrotic when stained with propidium iodide but negative for Annexin V, cells were evaluated as late apoptotic when propidium iodide positive and binding Annexin V, early apoptotic when propidium iodide negative and Annexin V positive and viable when negative for both stainings.
# [5] = test system: PBMC of newly-diagnosed T1D patients; test: T cell activation (CD69 staining) in stimulated PBMC, T1D patients; details: GAD65 peptide treated PBMC, day 6;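 note: GAD65 peptide 10 to 30 µg/ml in culture medium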
# Experimental: as §1, §2
sequence,measurement,setting,value
VMNILLQYV [GAD65 peptide],"% CD3+/CD8+/GAD65 reactive T cells, average","[1]; GAD65 treated PBMC, average of 22 T1D patients, day 6",30.0%
same,% CD3+/CD8+/GAD65 reactive T cells,"[1]; GAD65 treated PBMC, individual T1D patients, day 6 of culture",73% and 17% and 12.5% and 14.08% and 1% (2×) and 19% and 98% and 85% and 68% and 22% and 70% and 82% and 21% and 1.35% and 2.64% and 0.81% and 3.19% and 58% and 2.59% and 2.28% and 6.39%
same,Dot Plot pattern of CD8 expression of CD8+ GAD65 reactive T cells,"[1]; T1D patients after GAD65 peptide stimulation, not seen in normal controls",peculiar pattern of low CD8 expression
same,percentage of CD3+/CD8+/GAD65 reactive T cells compared to IL-2 stimulation,"[1]; one T1D patient non-responding at day 6, 2 days peptide then 2 days IL-2, analysis at day 4 (FIG. 8)",significant increase
same,increase of the population of CD3+/CD8+/GAD65 reactive T cells (specificity of the response),[2],no significant increase
same,"% CD3+/CD8+/GAD65 reactive T cells, average","[2]; GAD65-treated PBMC, average of 22 normal controls, day 6",0.9%
same,% CD3+/CD8+/GAD65 reactive T cells,"[2]; GAD65-treated PBMC, individual normal controls, day 6 of culture",0.37% and 0.42% and 2% and 0.09% and 0.97% and 0.6% and 8% and 1.21% and 0.25% and 0.9% and 1.03% and 0.49% and 0.23% (2×) and 0.03% and 0.21% and 0.11% and 0.13% and 0.14% and 0.17% and 0.86% and 0.57%
same,percentage of CD8+/GAD65 reactive lymphocytes,"[2]; healthy control donor, day 4, after GAD65 peptide stimulation (FIG. 9 B-C)",very low
same,"% CD69+/CD3+/CD8+ T cells, average",[3]; average of normal controls,12.9%
same,% CD69+/CD3+/CD8+ T cells,[3]; individual normal controls,2.1% and 0.75% and 13.51% and 17% and 26% and 13.4% and 18% (2×) and 19% and 1.7%
same,apoptosis (Annexin V) of CD8+/GAD65 reactive lymphocytes,"[4]; T1D patient, day 4 of culture with the GAD65 peptide (FIG. 9 E-F)",shows signs of apoptosis
same,population of Annexin V positive cells,"[4]; same samples, day 6 of GAD65 peptide treatment (FIG. 10)",no longer detectable
same,"% CD69/CD3/CD8 positive T cells, average",[5]; average of T1D patients,18.9%
same,% CD69/CD3/CD8 positive T cells,[5]; individual T1D patients,13.5% and 10.94% and 24% and 39% and 28% (2×) and 42% and 18% and 4.63% and 1.5% and 3.2% and 20% and 9.87% and 22%
